Assays:
[1] = target: T1, DmmA (Lyngbya majuscula, UniProt Q6DND9); conditions: 37 °C, pH 8.6; cited from earlier work
T1 sequence (Q6DND9 25-341): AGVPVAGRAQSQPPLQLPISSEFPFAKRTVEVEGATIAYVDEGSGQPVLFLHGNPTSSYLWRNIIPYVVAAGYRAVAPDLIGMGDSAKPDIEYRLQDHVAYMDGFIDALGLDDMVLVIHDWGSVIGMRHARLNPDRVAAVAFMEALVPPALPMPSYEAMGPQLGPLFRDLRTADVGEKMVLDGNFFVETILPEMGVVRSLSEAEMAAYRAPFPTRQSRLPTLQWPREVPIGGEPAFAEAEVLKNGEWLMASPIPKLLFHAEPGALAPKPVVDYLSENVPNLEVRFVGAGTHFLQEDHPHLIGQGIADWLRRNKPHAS

[2] = target: T2, LinB (Sphingobium indicum, UniProt D4Z2G1); conditions: 37 °C, pH 8.6; cited from earlier work
T2 sequence (D4Z2G1 1-296): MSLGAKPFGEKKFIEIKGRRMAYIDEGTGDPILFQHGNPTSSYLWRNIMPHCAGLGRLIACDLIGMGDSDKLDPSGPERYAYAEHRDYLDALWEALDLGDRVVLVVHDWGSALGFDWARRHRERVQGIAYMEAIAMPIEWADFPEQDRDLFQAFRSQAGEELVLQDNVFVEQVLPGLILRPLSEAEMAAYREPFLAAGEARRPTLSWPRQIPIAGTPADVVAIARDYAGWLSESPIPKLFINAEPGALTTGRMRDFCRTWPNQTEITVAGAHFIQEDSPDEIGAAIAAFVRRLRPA

[3] = target: T2, LinB; conditions: pH 8.6, 37 °C, cited from earlier work
[4] = Stability of COU–Br and BDP–Cl in the dark and under irradiation; assay type: physicochemical; conditions: 10 µM, pH 8.0, 30 °C
[5] = Photophysical properties of fluorescent substrates; assay type: physicochemical
[6] = system: DhaA; conditions: pH 9.4, 30 °C; cited from earlier work
[7] = system: DhlA; conditions: pH 8.2, 30 °C; cited from earlier work
[8] = substrate: COc1cc2oc(=O)cc(CBr)c2cc1OC; assay: Steady-state kinetics, fluorescence progress curves fitted globally; assay type: biochemical, marine microbial consortium; conditions: other: DmmA, 30 °C, pH 8.0
[9] = PBS buffer/DMSO (90:10, v/v), pH 8.0, c ≈ 10^−6 M

CCCCCl [CB, 1-chlorobutane]
Km [1]: 400 ± 100 µM | kcat [1]: 0.17 ± 0.02 s⁻¹ | Km [2]: 240 ± 20 µM | kcat [2]: 1.00 ± 0.03 s⁻¹

CCCCCCCl [CH, 1-chlorohexane]
k3 ([3]; three-step model): 3.2 ± 0.2 s⁻¹ | k2 [3]: 117 ± 5 s⁻¹

COc1cc2oc(=O)cc(CBr)c2cc1OC [COU–Br, 4-(bromomethyl)-6,7-dimethoxycoumarin]
stability under irradiation ([4]; PBS buffer/DMSO (90:10), xenon lamp 100 W, 10 min): slowly degraded under irradiation | stability in the dark ([4]; PBS buffer/DMSO (90:10, v/v)): stable in the dark | increase in quantum yield upon covalent binding to HLDs [5]: 6 fold | Φfl (quantum yield of fluorescence) [5, 9]: 15.2 ± 1.2% | λmax (absorption maximum) [5, 9]: 354 nm | ε (molar absorption coefficient) ([5]; neat DMSO, three independent measurements): 11,500 M^−1cm^−1

BrCCBr [DBE, 1,2-dibromoethane]
Km [1]: 2300 ± 300 µM | kcat [1]: 1.8 ± 0.4 s⁻¹ | Km [2]: 1700 ± 200 µM | kcat [2]: 12 ± 4 s⁻¹

BrCCCBr [DBP, 1,3-dibromopropane]
k1 [6]: 800000 to 2.5e+06 M⁻¹ s⁻¹ | k2 [6]: 249 to 272 s⁻¹ | k3 [6]: 13.5 to 16.3 s⁻¹ | k4 [6]: 3.4 to 4.6 s⁻¹ | k−1 [6]: 60 to 300 s⁻¹

ClCCCl [DCE, 1,2-dichloroethane]
k1 [7]: 9 ± 1 × 10^-3 μM^−1s^−1 | k2 [7]: 50 ± 10 s⁻¹ | k3 [7]: 14 ± 3 s⁻¹ | k4 [7]: 8 ± 2 s⁻¹ | k−1 [7]: 20 ± 5 s⁻¹

B1: DmmA (Lyngbya majuscula) (protein)
chain: T1 sequence (Q6DND9 25-341)
Km [8]: 0.9 ± 0.6 µM | kcat [8]: 1.9 ± 0.1 s⁻¹ | kcat/Km [8]: 2.1e+06 M⁻¹ s⁻¹

From paper PMC7182704 (Computational and Structural Biotechnology Journal, 2020)
